Assay results published in article PMC11740144 (ACS Omega, 2024).

Tests used:
VeroE6 host cells = conditions: cited from earlier work
SARS-CoV-2 [1] = conditions: VeroE6 host cells; read-out: EC50 of inhibiting SARS-CoV-2 entry into VeroE6 host cells; cited from earlier work
Furin = Furin (Homo sapiens, UniProt P09958); assay: Inhibition of human protease Furin (data not shown); type: biochemical
[2] = system: SARS-CoV-2 delta virus (NTU92); assay: Plaque reduction assay, entry treatment (compound preincubated with the virus); type: cell-based; conditions: Severe acute respiratory syndrome coronavirus 2, Vero C1008, VeroE6 cells, triplicate, read-out: EC50 against delta SARS-CoV-2 infecting VeroE6 cells
Cathepsin L = Cathepsin L (Homo sapiens, UniProt P07711); assay: Inhibition of human protease Cathepsin L (data not shown); type: biochemical
Cathepsin L, sequence (P07711 114-333): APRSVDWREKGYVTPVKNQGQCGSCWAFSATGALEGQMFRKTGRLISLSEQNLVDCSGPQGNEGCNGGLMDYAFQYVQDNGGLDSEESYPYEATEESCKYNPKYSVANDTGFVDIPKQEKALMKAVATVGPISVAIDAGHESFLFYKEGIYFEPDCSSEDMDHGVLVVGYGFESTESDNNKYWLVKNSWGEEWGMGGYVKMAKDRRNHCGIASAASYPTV

SARS-CoV-2 [3] = type: cell-based
[4] = Cytotoxicity by acid phosphatase assay; type: cell-based; conditions: African green monkey; VeroE6 cells, 3 days incubation
Protocol: Cytotoxicity of the inhibitors was determined by using acid phosphatase assay. Briefly, VeroE6 cells were seeded onto a 96-well culture plate at a concentration of 2 × 10^4 cells per well. Next day, the medium was removed, and each well was washed once with PBS before adding DMEM containing 2% FBS and different concentrations of an inhibitor. Next, DMEM containing 2 μg/mL TPCK-trypsin was added. After 1 h of incubation at 37 °C, the medium was removed, and cells were washed by PBS. Then, DMEM containing 2% FBS and different concentrations of an antiviral was added. After 3 days of incubation at 37 °C, the medium was removed, and each well was washed once with PBS. Next, buffer containing 0.1 M sodium acetate (pH = 5.0), 0.1% Triton X-100, and 5 mM p-nitrophenyl phosphate was added. After the mixture was incubated at 37 °C for 2 h, 1 N NaOH was added to stop the reaction. The absorbance was then determined by an ELISA reader (VERSAmax, Molecular Devices, Sunnyvale, CA) at a wavelength of 405 nm. The percentage of cytotoxicity was calculated using the following formula: cytotoxicity % = [1 – (At/As) × 100]%, where At and As refer to the absorbance of a tested substance and solvent control, respectively. The 50% cytotoxicity concentration (CC50) was defined as the concentration reducing 50% of cell viability. […]

TMPRSS2 = TMPRSS2 (Homo sapiens, UniProt O15393); assay: Inhibition of human protease TMPRSS2 (data not shown); type: biochemical
TMPRSS2, sequence (O15393 whole entry): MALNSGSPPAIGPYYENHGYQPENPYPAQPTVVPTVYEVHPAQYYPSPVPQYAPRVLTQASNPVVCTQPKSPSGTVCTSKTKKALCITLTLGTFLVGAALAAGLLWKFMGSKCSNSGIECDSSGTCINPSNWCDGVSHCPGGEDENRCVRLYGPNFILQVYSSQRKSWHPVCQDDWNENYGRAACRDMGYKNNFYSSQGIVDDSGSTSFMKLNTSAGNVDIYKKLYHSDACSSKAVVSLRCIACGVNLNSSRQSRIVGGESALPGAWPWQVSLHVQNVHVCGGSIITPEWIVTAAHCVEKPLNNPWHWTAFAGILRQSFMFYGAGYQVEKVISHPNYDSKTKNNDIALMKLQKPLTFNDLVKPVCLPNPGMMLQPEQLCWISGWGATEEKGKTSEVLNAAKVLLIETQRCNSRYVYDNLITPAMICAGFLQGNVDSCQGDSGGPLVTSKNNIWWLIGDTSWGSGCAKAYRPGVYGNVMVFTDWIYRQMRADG
RBD:ACE2 interaction = RBD:ACE2 interaction (Severe acute respiratory syndrome coronavirus 2, UniProt P0DTC2); assay: RBD:ACE2 interaction inhibition, NanoBiT kit (Promega); design: species or system delta SARS-CoV-2 RBD / human ACE2; conditions: RBD from delta SARS-CoV-2, triplicate; read-out: IC50 of RBD:ACE2 binding inhibition

Furin, sequence (P09958 108-794): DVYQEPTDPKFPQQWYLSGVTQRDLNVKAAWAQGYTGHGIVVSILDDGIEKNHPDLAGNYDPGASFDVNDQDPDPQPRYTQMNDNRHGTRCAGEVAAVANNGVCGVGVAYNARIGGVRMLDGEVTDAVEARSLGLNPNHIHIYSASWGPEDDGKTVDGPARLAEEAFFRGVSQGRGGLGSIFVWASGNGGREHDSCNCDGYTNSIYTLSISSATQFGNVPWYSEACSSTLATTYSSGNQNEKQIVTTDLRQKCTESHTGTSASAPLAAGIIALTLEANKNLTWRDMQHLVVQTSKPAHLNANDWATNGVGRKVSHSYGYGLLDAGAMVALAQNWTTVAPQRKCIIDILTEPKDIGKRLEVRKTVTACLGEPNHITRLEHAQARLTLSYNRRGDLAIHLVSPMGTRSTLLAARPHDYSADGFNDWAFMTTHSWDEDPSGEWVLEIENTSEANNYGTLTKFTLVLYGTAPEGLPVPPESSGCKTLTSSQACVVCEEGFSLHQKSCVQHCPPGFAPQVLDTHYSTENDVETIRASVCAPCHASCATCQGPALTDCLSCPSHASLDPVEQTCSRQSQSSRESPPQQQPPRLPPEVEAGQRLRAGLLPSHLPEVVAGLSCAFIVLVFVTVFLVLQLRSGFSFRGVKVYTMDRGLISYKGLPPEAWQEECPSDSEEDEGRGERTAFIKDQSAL

Row | Compound | CC50 (VeroE6 host cells) [µM] | EC50 (SARS-CoV-2 [1]) [µM] | inhibition of Furin (Furin) | EC50 [2] [µM] | inhibition of Cathepsin L (Cathepsin L) | anti-SARS-CoV-2 activity under the postentry treatment (SARS-CoV-2 [3]) | CC50 at 3 days [4] [µM] | inhibition of TMPRSS2 (TMPRSS2) | IC50 (RBD:ACE2 interaction) [µM]
1 | berbamine hydrochloride | 66.9 | 1.73 |  |  |  |  |  |  | 
2 | O=C(c1ccccc1)[C@H]1[C@@H]2c3ccccc3C=CN2[C@@H](C(=O)c2ccccc2)[C@@H]2c3ccccc3C=CN12 [Compound 50] |  |  | no inhibition | 26.5 ± 6.9 | no inhibition | not under the postentry treatment | > 100 | no inhibition | 32.7 ± 8.9
3 | O=C(c1ccc(Cl)cc1)[C@H]1[C@@H]2c3ccccc3C=CN2[C@@H](C(=O)c2ccc(Cl)cc2)[C@@H]2c3ccccc3C=CN12 [Compound 96] |  |  | no inhibition | 17 ± 3.7 | no inhibition | not under the postentry treatment | > 100 | no inhibition | 10.4 ± 2.1
